According to ChEMBL document CHEMBL4420076, “Amylin and calcitonin receptor agonist” (2017):
pEC50, pIC50: −log10 of the molar value. Numbered stars: 1 amine (or outer) side, 2 acyl side, 3 side chain; on linkers, the order of the positions; unused ones are H or OH. Peptide text beside a SMILES is read from it. * marks the point of attachment. C20 diacid = O=C(O)CCCCCCCCCCCCCCCCCCC(=O)*; C18 diacid = O=C(O)CCCCCCCCCCCCCCCCC(=O)*; γGlu = O=C(O)[C@H](CCC(=O)[*:2])N[*:1]; AEEA = NCCOCCOCC(=O)O

Tests used:
[1] = Solubility in 100 mM bistrispropane buffer at pH 6.5 incubated for 18 hrs by UPLC analysis; format: physicochemical
[2] = Stability in pH 7.5 buffer assessed as compound recovery at 1 uM by Thioflavin T based fluorescence assay; format: physicochemical; details: read-out: Drug recovery
Calcitonin receptor [3] = molecular target: T1, Calcitonin receptor (Homo sapiens, UniProt P30988); assay: Agonist activity at human calcitonin receptor expressed in BHK570 cells assessed as increase in intracellular cAMP concentration incubated for 3 hrs in presence of 10% FBS by CRE luciferase reporter gene assay; format: functional, cell-based
T1 sequence (P30988 whole entry): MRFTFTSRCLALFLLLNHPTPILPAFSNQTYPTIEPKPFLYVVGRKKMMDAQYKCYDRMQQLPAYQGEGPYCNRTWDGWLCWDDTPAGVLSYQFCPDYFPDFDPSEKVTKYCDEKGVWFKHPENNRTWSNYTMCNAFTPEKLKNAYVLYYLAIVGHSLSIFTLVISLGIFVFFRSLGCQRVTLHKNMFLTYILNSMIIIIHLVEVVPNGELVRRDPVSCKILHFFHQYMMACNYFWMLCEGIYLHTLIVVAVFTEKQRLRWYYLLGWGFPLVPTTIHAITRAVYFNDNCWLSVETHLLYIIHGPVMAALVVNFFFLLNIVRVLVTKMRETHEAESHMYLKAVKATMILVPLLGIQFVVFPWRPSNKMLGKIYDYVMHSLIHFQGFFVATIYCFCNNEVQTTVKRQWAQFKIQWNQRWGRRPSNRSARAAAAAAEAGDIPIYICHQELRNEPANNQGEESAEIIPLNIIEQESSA

[4] = Stability in pH 7.5 buffer assessed as lag time for fibril formation at 1 uM by Thioflavin T based fluorescence assay; format: physicochemical; details: pH 7.5, 1 µM
[5] = Solubility in 100 mM glycylglycine buffer at pH 5.0 incubated for 18 hrs by UPLC analysis; format: physicochemical
Calcitonin receptor [6] = molecular target: T1, Calcitonin receptor; assay: Displacement of [125I]-labeled human calcitonin from human calcitonin receptor expressed in BHK tkts13 cell membranes incubated for 1 hr by scintillation proximity assay
[7] = Solubility in 100 mM bistrispropane buffer at pH 7.0 incubated for 18 hrs by UPLC analysis; format: physicochemical
[8] = Solubility in 100 mM bistrispropane buffer at pH 7.5 incubated for 18 hrs by UPLC analysis; format: physicochemical
[9] = Solubility in 100 mM bistrispropane buffer at pH 6.0 incubated for 18 hrs by UPLC analysis; format: physicochemical
[10] = Solubility in 100 mM bistrispropane buffer at pH 8.0 incubated for 18 hrs by UPLC analysis; format: physicochemical
[11] = molecular target: T2, Amylin receptor AMY3; CALCR/RAMP3 (Homo sapiens, UniProt O60896+P30988); assay: Displacement of [125I]-labeled rat amylin from human amylin receptor expressed in BHK tkts13 whole cells co-expressing RAMP3 incubated for 60 mins by scintillation proximity assay; format: cell-based
T2 sequence (P30988 whole entry): T1 sequence (P30988 whole entry)
T2 sequence (O60896 whole entry): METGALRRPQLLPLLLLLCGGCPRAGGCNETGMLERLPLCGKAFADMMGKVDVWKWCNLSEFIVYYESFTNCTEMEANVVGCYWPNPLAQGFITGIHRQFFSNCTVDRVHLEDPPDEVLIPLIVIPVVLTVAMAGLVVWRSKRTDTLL

[12] = Solubility in 100 mM glycylglycine buffer at pH 4.0 incubated for 18 hrs by UPLC analysis; format: physicochemical
Calcitonin receptor [13] = molecular target: T1, Calcitonin receptor; assay: Displacement of [125I]-labeled human calcitonin from human calcitonin receptor expressed in BHK tkts13 whole cells incubated for 60 mins by scintillation proximity assay; format: cell-based
[14] = Solubility in 100 mM glycylglycine buffer at pH 3.0 incubated for 18 hrs by UPLC analysis; format: physicochemical
Calcitonin receptor [15] = molecular target: T1, Calcitonin receptor; assay: Agonist activity at human calcitonin receptor expressed in BHK570 cells assessed as increase in intracellular cAMP concentration incubated for 3 hrs in absence of albumin by CRE luciferase reporter gene assay; format: functional, cell-based
[16] = molecular target: T2, Amylin receptor AMY3; CALCR/RAMP3; assay: Displacement of [125I]-labeled rat amylin from human amylin receptor expressed in BHK570 cell membranes co-expressing RAMP3 incubated for 120 mins by scintillation proximity assay
[17] = molecular target: T2, Amylin receptor AMY3; CALCR/RAMP3; assay: Agonist activity at human amylin receptor expressed in BHK570 cells co-expressing RAMP3 assessed as increase in intracellular cAMP concentration incubated for 3 hrs in absence of albumin by CRE luciferase reporter gene assay; format: functional, cell-based
[18] = molecular target: T2, Amylin receptor AMY3; CALCR/RAMP3; assay: Agonist activity at human amylin receptor expressed in BHK570 cells co-expressing RAMP3 assessed as increase in intracellular cAMP concentration incubated for 3 hrs in presence of 10% FBS by CRE luciferase reporter gene assay; format: functional, cell-based
[19] = Half life in LYD pig at 1.6 mM, sc co-formulated with 1.6 mM liraglutide by LC-MS analysis; format: ADME, organism-based, Sus scrofa; details: in vivo
[20] = Dose normalized AUC in LYD pig at 1.6 mM, sc co-dosed with 1.6 mM liraglutide by LC-MS analysis; format: ADME, organism-based, Sus scrofa; details: in vivo, 1600 µM
Rattus norvegicus [21] = assay: Reduction in food intake in Sprague-Dawley rat at 3 nmol/kg measured 0 to 24 hrs post dose relative to control; format: functional; parameters: scale not given: the % may be the effect or the level left
[22] = Dose normalized AUC in LYD pig at 1.6 mM, sc co-formulated with 1.6 mM liraglutide by LC-MS analysis; format: ADME, organism-based, Sus scrofa; details: in vivo, 1600 µM
[23] = Half life in LYD pig at 1.6 mM, sc co-dosed with 1.6 mM liraglutide by LC-MS analysis; format: ADME, organism-based, Sus scrofa; details: in vivo
Rattus norvegicus [24] = assay: Reduction in food intake in Sprague-Dawley rat at 3 nmol/kg measured 24 to 48 hrs post dose relative to control; format: functional; parameters: scale not given: the % may be the effect or the level left

## CC(C)C[C@H](NC(=O)[C@H](C)NC(=O)[C@H](C)NC(=O)[C@@H](NC(=O)[C@H](CO)NC(=O)[C@H](CC(C)C)NC(=O)[C@H](CCC(=O)O)NC(=O)[C@H](CO)NC(=O)[C@H](C)NC(=O)COCCOCCNC(=O)COCCOCCNC(=O)COCCOCCNC(=O)CC[C@H](NC(=O)CCCCCCCCCCCCCCCCCCC(=O)O)C(=O)O)[C@@H](C)O)C(=O)NCC(=O)N[C@@H](CCCNC(=N)N)C(=O)N[C@@H](CC(C)C)C(=O)N[C@@H](CO)C(=O)N[C@@H](C)C(=O)N[C@@H](CCC(=O)O)C(=O)N[C@@H](CC(C)C)C(=O)N[C@@H](Cc1cnc[nH]1)C(=O)N[C@@H](CCC(=O)O)C(=O)N[C@@H](CC(C)C)C(=O)N[C@@H](C)C(=O)N[C@H](C(=O)N[C@@H](CC(C)C)C(=O)N1CCC[C@H]1C(=O)N[C@@H](CCCNC(=N)N)C(=O)N[C@H](C(=O)N[C@@H](CCC(=O)O)C(=O)N[C@H](C(=O)NCC(=O)N[C@@H](CO)C(=O)NCC(=O)N[C@@H](CO)C(=O)N1CCC[C@H]1C(N)=O)[C@@H](C)O)[C@@H](C)O)[C@@H](C)O ({C20 diacid-γGlu-AEEA-AEEA-AEEA}-ASELSTAALGRLSAELHELATLPRTETGSGSP-NH2)
[1]
  solubility at 18 h: ≥ 200 µM
[2]
  remaining at 1 µM: 100%
Calcitonin receptor [3]
  pEC50: 10.60
[4]
  Time: > 45 h
[5]
  solubility at 18 h: ≥ 200 µM
Calcitonin receptor [6]
  pIC50: 10.30
[7]
  solubility at 18 h: ≥ 200 µM
[8]
  solubility at 18 h: ≥ 200 µM
[9]
  solubility at 18 h: ≥ 200 µM
[10]
  solubility at 18 h: ≥ 200 µM
[11]
  pIC50: 9.36
[12]
  solubility at 18 h: ≥ 200 µM
Calcitonin receptor [13]
  pIC50: 9.45
[14]
  solubility at 18 h: ≥ 200 µM
Calcitonin receptor [15]
  pEC50: 10.96
[16]
  pIC50: 9.79
[17]
  pEC50: 10.74
[18]
  pEC50: 10.17

## CC(C)C[C@H](NC(=O)[C@H](C)NC(=O)[C@H](C)NC(=O)[C@@H](NC(=O)[C@H](CO)NC(=O)[C@H](CC(C)C)NC(=O)[C@H](CCC(=O)O)NC(=O)[C@H](CO)NC(=O)[C@H](C)NC(=O)CC[C@H](NC(=O)CCCCCCCCCCCCCCCCC(=O)O)C(=O)O)[C@@H](C)O)C(=O)NCC(=O)N[C@@H](CCCNC(=N)N)C(=O)N[C@@H](CC(C)C)C(=O)N[C@@H](CO)C(=O)N[C@@H](C)C(=O)N[C@@H](CCC(=O)O)C(=O)N[C@@H](CC(C)C)C(=O)N[C@@H](Cc1cnc[nH]1)C(=O)N[C@@H](CCC(=O)O)C(=O)N[C@@H](CC(C)C)C(=O)N[C@@H](C)C(=O)N[C@H](C(=O)N[C@@H](CC(C)C)C(=O)N1CCC[C@H]1C(=O)N[C@@H](CCCNC(=N)N)C(=O)N[C@H](C(=O)N[C@@H](CCC(=O)O)C(=O)N[C@H](C(=O)NCC(=O)N[C@@H](CO)C(=O)NCC(=O)N[C@@H](CO)C(=O)N1CCC[C@H]1C(N)=O)[C@@H](C)O)[C@@H](C)O)[C@@H](C)O ({C18 diacid-γGlu}-ASELSTAALGRLSAELHELATLPRTETGSGSP-NH2)
[1]
  solubility at 18 h: ≥ 200 µM
[2]
  remaining at 1 µM: 100%
[19]
  half-life at 1600 µM: 133 h
Calcitonin receptor [3]
  pEC50: 10.96
[4]
  Time: > 45 h
[5]
  solubility at 18 h: ≥ 200 µM
[7]
  solubility at 18 h: ≥ 200 µM
[8]
  solubility at 18 h: ≥ 200 µM
[20]
  AUC/dose: 624 kg·h/L
[9]
  solubility at 18 h: ≥ 200 µM
[10]
  solubility at 18 h: ≥ 200 µM
Rattus norvegicus [21]
  Activity: 82%
[12]
  solubility at 18 h: ≥ 200 µM
[22]
  AUC/dose: 656 kg·h/L
[14]
  solubility at 18 h: ≥ 200 µM
[23]
  half-life at 1600 µM: 129 h
Calcitonin receptor [15]
  pEC50: 10.77
[17]
  pEC50: 10.80
[18]
  pEC50: 10.59
Rattus norvegicus [24]
  Activity: 78%
